Target: T1, hTAS1R1 H308A/rTAS1R3 (Homo sapiens, UniProt Q7RTX1, H308A)
T1 construct: UniProtKB number Q7RTX1–1); expressed in transfected cells; host or cells: HEK293T/17 (ATCC CRL-11268)
T1 sequence (Q7RTX1 21-841 H308A): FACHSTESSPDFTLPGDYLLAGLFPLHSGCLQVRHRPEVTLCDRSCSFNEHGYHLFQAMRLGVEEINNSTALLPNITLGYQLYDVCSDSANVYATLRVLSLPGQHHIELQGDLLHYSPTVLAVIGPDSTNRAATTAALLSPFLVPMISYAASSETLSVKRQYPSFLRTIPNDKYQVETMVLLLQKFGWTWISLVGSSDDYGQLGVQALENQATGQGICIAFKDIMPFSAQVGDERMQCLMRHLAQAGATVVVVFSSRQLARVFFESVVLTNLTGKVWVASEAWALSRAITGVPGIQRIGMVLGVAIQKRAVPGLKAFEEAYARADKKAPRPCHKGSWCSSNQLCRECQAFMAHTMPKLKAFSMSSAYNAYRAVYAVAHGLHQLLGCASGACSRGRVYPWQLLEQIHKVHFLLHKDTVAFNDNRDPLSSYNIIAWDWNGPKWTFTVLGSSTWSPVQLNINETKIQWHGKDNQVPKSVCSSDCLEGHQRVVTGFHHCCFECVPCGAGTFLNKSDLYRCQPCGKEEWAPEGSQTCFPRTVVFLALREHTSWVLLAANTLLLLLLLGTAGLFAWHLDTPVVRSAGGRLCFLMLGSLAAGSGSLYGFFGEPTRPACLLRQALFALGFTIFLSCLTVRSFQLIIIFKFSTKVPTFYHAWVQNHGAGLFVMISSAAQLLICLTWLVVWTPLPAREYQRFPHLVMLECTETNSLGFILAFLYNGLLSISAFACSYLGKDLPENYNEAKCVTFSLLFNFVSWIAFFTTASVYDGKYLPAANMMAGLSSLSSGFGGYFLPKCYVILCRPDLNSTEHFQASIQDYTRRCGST
T1 sequence (Q923K1 21-858 partner): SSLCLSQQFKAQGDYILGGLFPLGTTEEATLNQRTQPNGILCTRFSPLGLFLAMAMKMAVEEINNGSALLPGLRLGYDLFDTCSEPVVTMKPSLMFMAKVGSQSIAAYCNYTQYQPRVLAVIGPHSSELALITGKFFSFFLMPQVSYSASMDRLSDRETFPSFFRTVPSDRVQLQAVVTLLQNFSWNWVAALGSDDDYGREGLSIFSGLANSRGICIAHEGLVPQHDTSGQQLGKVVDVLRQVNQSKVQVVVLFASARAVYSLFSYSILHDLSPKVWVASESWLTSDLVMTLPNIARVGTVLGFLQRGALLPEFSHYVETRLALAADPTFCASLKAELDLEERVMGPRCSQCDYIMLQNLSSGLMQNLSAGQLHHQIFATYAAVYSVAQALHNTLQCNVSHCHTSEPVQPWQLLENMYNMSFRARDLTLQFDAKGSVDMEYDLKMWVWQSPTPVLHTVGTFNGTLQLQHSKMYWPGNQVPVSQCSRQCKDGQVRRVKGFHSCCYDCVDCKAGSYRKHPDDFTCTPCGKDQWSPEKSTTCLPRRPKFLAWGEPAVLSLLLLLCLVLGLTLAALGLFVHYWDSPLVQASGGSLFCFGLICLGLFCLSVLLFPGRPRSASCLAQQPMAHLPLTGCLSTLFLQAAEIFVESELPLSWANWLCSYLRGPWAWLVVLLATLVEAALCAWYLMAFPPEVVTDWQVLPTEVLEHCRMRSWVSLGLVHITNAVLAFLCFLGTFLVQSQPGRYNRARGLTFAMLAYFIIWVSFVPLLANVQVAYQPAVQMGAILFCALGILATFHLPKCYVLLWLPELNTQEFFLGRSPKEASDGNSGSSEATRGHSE
Assay: Calcium assay, hTAS1R1 mutant co-expressed with rTAS1R3
Assay type: cell-based, rat

SMILES	EC50 [mM]	effect of the added compound (1 mM) on the response to L-Glu (H308A)	Max ∆F/F0 (H308A, GSH)	R1 = mutant EC50/WT EC50 (H308A, GSH)	response to the agonist alone, vs WT (H308A)
N[C@@H](CCC(=O)N[C@@H](CS)C(=O)NCC(=O)O)C(=O)O [GSH, γ-L-glutamyl-L-cysteinyl-glycine]	3.25 ± 0.225	synergy was observed	0.42 ± 0.01	1.3	–
CCCC(CCC)NC(=O)c1ccc2c(c1)OCO2 [S807, N-(heptan-4-yl)benzo[d][1,3]dioxole-5-carboxamide, reference compound]	–	–	–	–	strongly affected

Source: PMC12615753, “Glutathione as a taste modulator: molecular mechanisms of interaction with umami and sweet taste receptors” (Food Chemistry: Molecular Sciences, 2025)
